According to patent US20240116985A1, “STAPLED PEPTIDES AND METHODS THEREOF” (priority 2020, published 2024):
≈ marks a conversion by molar mass, not a printed value. Read-outs that look alike come from different tables or passages of the source.

How the values were obtained:
[1] = target: T1, full-length beta-Catenin (Uniprot ID P35222) (Homo sapiens, UniProt P35222); assay: Fluorescence polarization IC50 (beta-catenin / 5FAM-TCF4 10-53 competition); assay type: binding
T1 construct: 10 nM full-length beta-Catenin (Uniprot ID P35222)
T1 sequence (P35222 1-781): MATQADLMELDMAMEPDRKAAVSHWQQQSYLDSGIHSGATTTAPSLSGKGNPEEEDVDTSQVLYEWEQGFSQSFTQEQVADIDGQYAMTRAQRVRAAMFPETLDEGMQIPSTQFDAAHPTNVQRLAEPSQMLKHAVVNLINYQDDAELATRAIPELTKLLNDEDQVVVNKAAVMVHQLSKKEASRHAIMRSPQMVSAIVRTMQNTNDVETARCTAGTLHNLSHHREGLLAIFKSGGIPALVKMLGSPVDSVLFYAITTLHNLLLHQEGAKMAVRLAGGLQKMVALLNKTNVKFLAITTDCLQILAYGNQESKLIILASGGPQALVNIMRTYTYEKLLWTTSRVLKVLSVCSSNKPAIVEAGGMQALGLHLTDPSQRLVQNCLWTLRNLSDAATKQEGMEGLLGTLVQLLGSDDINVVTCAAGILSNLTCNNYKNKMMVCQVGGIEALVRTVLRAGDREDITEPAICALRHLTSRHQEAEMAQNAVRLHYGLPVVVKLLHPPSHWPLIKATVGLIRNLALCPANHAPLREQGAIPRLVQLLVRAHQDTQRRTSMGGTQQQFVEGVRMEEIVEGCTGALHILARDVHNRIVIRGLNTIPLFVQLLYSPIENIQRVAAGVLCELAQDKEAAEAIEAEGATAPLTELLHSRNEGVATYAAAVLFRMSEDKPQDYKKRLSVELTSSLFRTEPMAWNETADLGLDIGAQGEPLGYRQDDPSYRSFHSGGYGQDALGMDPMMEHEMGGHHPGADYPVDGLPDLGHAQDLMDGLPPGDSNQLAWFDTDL

CHI Log D procedure = assay type: physicochemical; conditions: for chromatographic logD: pH 7.4, CHI Log D; for CHI Log D: pH 7.4
Solubility in PBS = assay type: physicochemical
Outline: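 HPLC quantitation of peptide remaining in the PBS supernatant after ultracentrifugation, referenced to a 50 μM solution in DMSO.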

[2] = fluorescence polarization, read-out: beta-Catenin FP IC50
[3] = fluorescence polarization, beta-catenin, read-out: FP EC50
[4] = Table E2-1, read-out: beta-Catenin FP IC50

| Structure (SMILES) | IC50 [1, 2] [nM] | chromatographic logD (CHI Log D procedure) | Solubility (Solubility in PBS; Solubility (uM)) [µM] | IC50 ([1]; read-out: FP EC50) [nM] | CHI Log D (CHI Log D procedure) | Solubility (Solubility in PBS) [µM] | IC50 [1, 3] [nM] | IC50 ([1]; read-out: beta-Catenin FP IC50) [nM] | IC50 [1, 4] [nM] |
| --- | --- | --- | --- | --- | --- | --- | --- | --- | --- |
| CC[C@H](C)[C@@H]1NC(=O)[C@H](CC(=O)O)NC(=O)[C@]2(CC=CCCCC3(CCCC=CCCCCCC[C@@](C)(C(=O)N[C@@H](Cc4ccccc4)C(=O)N[C@@H](Cc4csc5ccccc45)C(=O)N[C@@H](Cc4c[nH]cn4)C(N)=O)NC(=O)[C@H](CCC(N)=O)NC(=O)[C@H](Cc4ccccc4)NC(=O)[C@H](C)NC(=O)[C@H](C)NC(=O)[C@H](CCC(=O)O)NC(=O)[C@H](CC(=O)O)NC3=O)NC1=O)CCCN2C(C)=O (stereo partly drawn) [I-471, Ac-PL3-Asp-Ile-B5-Asp-Glu-Ala-Ala-Phe-Gln-S8-Phe-BztA-His-NH2] | 52 | 2.43 | 13 (≈ 24.6 µg/mL) | – | – | – | – | – | – |
| CC(=O)N1CCC[C@]12CC=CCCCC1(CCCC=CCCCCCC[C@@](C)(C(=O)N[C@@H](Cc3cccc(F)c3)C(=O)N[C@@H](Cc3c[nH]c4ccccc34)C(=O)N[C@@H](CCC(N)=O)C(N)=O)NC(=O)[C@H](CCC(N)=O)NC(=O)[C@H](Cc3ccsc3)NC(=O)[C@H](C)NC(=O)[C@H](C)NC(=O)[C@H](CCC(=O)O)NC(=O)[C@H](CC(=O)O)NC1=O)NC(=O)[C@H](C)NC(=O)[C@H](CC(=O)O)NC2=O (stereo partly drawn) [I-452, Ac-PL3-Asp-Ala-B5-Asp-Glu-Ala-Ala-3Thi-Gln-S8-3FF-Trp-Gln-NH2] | 1660 | – | – | 1660 | 1.917 | 50 (≈ 92.4 µg/mL) | – | – | – |
| CC[C@H](C)[C@@H]1NC(=O)[C@H](CC(=O)O)NC(=O)[C@]2(CC=CCCCC3(CCCC=CCCCCCC[C@@](C)(C(=O)N[C@@H](Cc4ccccc4)C(=O)N[C@@H](Cc4csc5ccccc45)C(=O)N[C@@H](Cc4c[nH]cn4)C(N)=O)NC(=O)[C@H](CCC(N)=O)NC(=O)[C@H](Cc4cccs4)NC(=O)[C@H](C)NC(=O)[C@H](C)NC(=O)[C@H](CCC(=O)O)NC(=O)[C@H](CC(=O)O)NC3=O)NC1=O)CCCN2C(C)=O (stereo partly drawn) [I-488, Ac-PL3-Asp-Ile-B5-Asp-Glu-Ala-Ala-2Thi-Gln-S8-Phe-BztA-His-NH2] | 43 | 2.4 | 30 (≈ 56.9 µg/mL) | – | – | – | – | – | – |
| CC[C@H](C)[C@@H]1NC(=O)[C@H](CC(=O)O)NC(=O)[C@]2(CC=CCCCC3(CCCC=CCCCCCC[C@@](C)(C(=O)N[C@@H](Cc4ccccc4)C(=O)N[C@@H](Cc4csc5ccccc45)C(=O)N[C@@H](CCC(N)=O)C(N)=O)NC(=O)[C@H](CCC(N)=O)NC(=O)[C@H](CC4CCCCC4)NC(=O)[C@H](C)NC(=O)[C@H](C)NC(=O)[C@H](CCC(=O)O)NC(=O)[C@H](CC(=O)O)NC3=O)NC1=O)CCCN2C(C)=O (stereo partly drawn) [I-722, Ac-PL3-Asp-Ile-B5-Asp-Glu-Ala-Ala-Cha-Gln-S8-Phe-BztA-Gln-NH2] | 1130 | 2.52 | 27 (≈ 51 µg/mL) | – | – | – | – | – | – |
| CC(=O)N1CCC[C@]12CC=CCCCC1(CCCC=CCCCOC(=O)N3CC[C@@](C(=O)N[C@@H](Cc4ccsc4)C(=O)N[C@@H](Cc4csc5ccccc45)C(=O)N[C@@H](CC(C)C)C(N)=O)(C3)NC(=O)[C@H](CC(N)=O)NC(=O)[C@H](Cc3ccccc3)NC(=O)[C@H](C)NC(=O)[C@H](C)NC(=O)[C@H](CN(CC(=O)O)CC(F)(F)F)NC(=O)[C@H](CC(=O)O)NC1=O)NC(=O)[C@H](CC(C)(C)C)NC(=O)[C@H](CC(=O)O)NC2=O (stereo partly drawn) [I-946, Ac-PL3-Asp-Npg-B5-Asp-TfeGA-Ala-Ala-Phe-Asn-PyrS2-3Thi-BztA-Leu-NH2] | – | – | – | – | 2.209 | 47 (≈ 94.7 µg/mL) | 798 | 798 | – |
| CC(=O)N1CCC[C@]12CC=CCCCC1(CCCC=CCCCCC[C@@](C)(C(=O)N[C@@H](Cc3ccccc3)C(=O)N[C@@H](Cc3c[nH]c4ccccc34)C(=O)N[C@@H](CCC(N)=O)C(N)=O)NC(=O)[C@H](C(C)C)NC(=O)[C@H](Cc3ccccc3)NC(=O)[C@H](C)NC(=O)[C@H](C)NC(=O)[C@H](CCC(=O)O)NC(=O)[C@H](CC(=O)O)NC1=O)NC(=O)[C@H](C)NC(=O)[C@H](CC(=O)O)NC2=O (stereo partly drawn) [I-132, Ac-PL3-Asp-Ala-B5-Asp-Glu-Ala-Ala-Phe-Val-S7-Phe-Trp-Gln-NH2] | – | 1.69 | 49 (≈ 87.3 µg/mL) | – | – | – | – | – | 5000 |
| CC(=O)N1CCC[C@]12CC=CCCCC1(CCCC=CCCCOC(=O)N3CC[C@@](C(=O)N[C@@H](Cc4ccsc4)C(=O)N[C@@H](Cc4csc5ccccc45)C(=O)N[C@@H](CO)C(N)=O)(C3)NC(=O)[C@H](CCO)NC(=O)[C@H](Cc3ccccc3)NC(=O)[C@H](C)NC(=O)[C@H](C)NC(=O)[C@H](CN(CC(=O)O)CC(F)(F)F)NC(=O)[C@H](CC(=O)O)NC1=O)NC(=O)[C@H](CC(C)(C)C)NC(=O)[C@H](CC(=O)O)NC2=O (stereo partly drawn) [I-958, Ac-PL3-Asp-Npg-B5-Asp-TfeGA-Ala-Ala-Phe-Hse-PyrS2-3Thi-BztA-Ser-NH2] | – | – | – | – | 1.417 | 47 (≈ 92.8 µg/mL) | 606 | 606 | – |
| CCC[C@@H]1NC(=O)[C@H](CC(=O)O)NC(=O)[C@]2(CC=CCCCC3(CCCC=CCCCCCC[C@@](C)(C(=O)N[C@@H](Cc4ccccc4)C(=O)N[C@@H](Cc4csc5ccccc45)C(=O)N[C@@H](CCC(N)=O)C(N)=O)NC(=O)[C@H](CCC(N)=O)NC(=O)[C@H](Cc4ccccc4)NC(=O)[C@H](C)NC(=O)[C@H](C)NC(=O)[C@H](CCC(=O)O)NC(=O)[C@H](CC(=O)O)NC3=O)NC1=O)CCCN2C(C)=O (stereo partly drawn) [I-522, Ac-PL3-Asp-Nva-B5-Asp-Glu-Ala-Ala-Phe-Gln-S8-Phe-BztA-Gln-NH2] | 75 | – | – | 75 | 2.214 | 50 (≈ 93.5 µg/mL) | – | – | – |
| CC(=O)N1CCC[C@]12CC=CCCCC1(CCCC=CCCCCCC[C@@](C)(C(=O)N[C@@H](Cc3ccccc3)C(=O)N[C@@H](Cc3csc4ccccc34)C(=O)N[C@@H](CCC(N)=O)C(N)=O)NC(=O)[C@H](CCC(N)=O)NC(=O)[C@H](Cc3ccccc3)NC(=O)[C@H](C)NC(=O)[C@H](C)NC(=O)[C@H](CCC(=O)O)NC(=O)[C@H](CC(=O)O)NC1=O)NC(=O)[C@H](CC(F)(F)F)NC(=O)[C@H](CC(=O)O)NC2=O (stereo partly drawn) [I-502, Ac-PL3-Asp-F3CA-B5-Asp-Glu-Ala-Ala-Phe-Gln-S8-Phe-BztA-Gln-NH2] | 55 | – | – | 55 | 2.171 | 50 (≈ 95.5 µg/mL) | – | – | – |
| CC(=O)N1CCC[C@]12CC=CCCCC1(CCCC=CCCCCCC[C@@](C)(C(=O)N[C@@H](Cc3ccccc3)C(=O)N[C@@H](Cc3csc4ccccc34)C(=O)N[C@H](CCC(N)=O)C(N)=O)NC(=O)[C@H](CCC(N)=O)NC(=O)[C@H](Cc3ccccc3)NC(=O)[C@H](C)NC(=O)[C@H](C)NC(=O)[C@H](CCC(=O)O)NC(=O)[C@H](CC(=O)O)NC1=O)NC(=O)[C@H](C)NC(=O)[C@H](CC(=O)O)NC2=O (stereo partly drawn) [I-494, Ac-PL3-Asp-Ala-B5-Asp-Glu-Ala-Ala-Phe-Gln-S8-Phe-BztA-DGIn-NH2] | 82 | 2.05 | 44 (≈ 81 µg/mL) | – | – | – | – | – | – |
| CC(=O)N1CCC[C@]12CC=CCCCC1(CCCC=CCCCOC(=O)N3CC[C@@](C(=O)N[C@@H](Cc4ccsc4)C(=O)N[C@@H](Cc4csc5ccccc45)C(N)=O)(C3)NC(=O)[C@H](CC(N)=O)NC(=O)[C@H](Cc3ccccc3)NC(=O)[C@H](C)NC(=O)[C@H](C)NC(=O)[C@H](CC(C)C)NC(=O)[C@H](CC(=O)O)NC1=O)NC(=O)[C@H](CC(C)(C)C)NC(=O)[C@H](CC(=O)O)NC2=O (stereo partly drawn) [I-862, Ac-PL3-Asp-Npg-B5-Asp-Leu-Ala-Ala-Phe-Asn-PyrS2-3Thi-BztA-NH2] | – | 2.85 | – | – | – | 10 (≈ 17.9 µg/mL) | – | 123 | – |
| CC(=O)N1CCC[C@]12CC=CCCCC1(CCCC=CCCCOC(=O)N3CC[C@@](C(=O)N[C@@H](Cc4ccsc4)C(=O)N[C@@H](Cc4csc5ccccc45)C(=O)N[C@@H](CCC(N)=O)C(=O)N[C@@H](CCCCNC(=O)CN4CCOCC4)C(N)=O)(C3)NC(=O)[C@H](CC(N)=O)NC(=O)[C@H](Cc3ccccc3)NC(=O)[C@H](C)NC(=O)[C@H](C)NC(=O)[C@H](CC(=O)O)NC(=O)[C@H](CC(=O)O)NC1=O)NC(=O)[C@H](CC(C)(C)C)NC(=O)[C@H](CC(=O)O)NC2=O (stereo partly drawn) [I-905, Ac-PL3-Asp-Npg-B5-Asp-Asp-Ala-Ala-Phe-Asn-PyrS2-3Thi-BztA-Gln-[Morph Ac]Lys-NH2] | – | 1.92 | 46 (≈ 100 µg/mL) | – | – | – | – | 8 | – |
| CC(=O)N1CCC[C@]12CC=CCCCC1(CCCC=CCCCCCC[C@@](C)(C(=O)N[C@@H](Cc3ccccc3)C(=O)N[C@@H](Cc3c[nH]c4ccccc34)C(=O)N[C@@H](CCC(N)=O)C(N)=O)NC(=O)[C@H](C(C)C)NC(=O)[C@H](Cc3cccc(F)c3)NC(=O)[C@H](C)NC(=O)[C@H](C)NC(=O)[C@H](CC(=O)O)NC(=O)[C@H](CC(=O)O)NC1=O)NC(=O)[C@H](C)NC(=O)[C@H](CC(=O)O)NC2=O (stereo partly drawn) [I-265, Ac-PL3-Asp-Ala-B5-Asp-Asp-Ala-Ala-3FF-Val-S8-Phe-Trp-Gln-NH2] | – | – | – | – | 2.032 | 36 (≈ 64.8 µg/mL) | 3760 | – | 3760 |
